Type: physicochemical
Settings: for melatonin available in the solution / solubilized: 7 min, 0.2 mg/mL
Protocol: The water solubility of non-compacted melatonin (starting material used for compaction in Example 1) and the solubility of the compacted melatonin prepared in Example 1 were compared.
Three samples of 10 mg each of non-compacted melatonin and three samples of 10 mg each of compacted melatonin were introduced in separate beakers and tap water at 22 °C was added to each beaker to a volume of 10, 25 or 50 ml (assays A, B and C, respectively). Each tested mixture was sonicated for 5 minutes and subsequently subjected to magnetic stirring at 200 rpm for 2 more minutes.

Compound	Solubility test, assay A (10 mg / 10 ml)	Solubility test, assay B (10 mg / 25 ml)	melatonin available in the solution / solubilized [%]	dissolution rate compared with non-compacted melatonin (ocular inspection, in each of assays A, B and C (10 mg in 10, 25 or 50 ml water))	melatonin remained as solid, not dissolved (HPLC analysis, assay C, 10 mg in 50 ml tap water at 22 °C) [%]
COc1ccc2[nH]cc(CCNC(C)=O)c2c1 [Compacted-melatonin, N-[2-(5-methoxy-1H-indol-3-yl)ethyl)acetamide]	(partially dissolved)	(partially dissolved)	100	higher dissolution rate	–
COc1ccc2[nH]cc(CCNC(C)=O)c2c1 [Non-compacted melatonin, N-[2-(5-methoxy-1H-indol-3-yl)ethyl)acetamide]	(partially dissolved)	(partially dissolved)	79	–	21
